From patent publication US9000175B2, “Bicyclic GPR119 modulators” (Lupin Limited, priority 2010, dated 2015)

These molecules were tested against T1, human GPR119 (Homo sapiens, UniProt Q8TDV5) (assay: Cyclic AMP assay in stable cell line). Conditions: CHO-K1 cells stably transfected with human GPR119; cAMP levels (FRET, cAMP femto kit); 1 h at 37° C; read-out: EC50 Range.
T1 construct: expressed in transfected cells
T1 sequence (Q8TDV5 1-335): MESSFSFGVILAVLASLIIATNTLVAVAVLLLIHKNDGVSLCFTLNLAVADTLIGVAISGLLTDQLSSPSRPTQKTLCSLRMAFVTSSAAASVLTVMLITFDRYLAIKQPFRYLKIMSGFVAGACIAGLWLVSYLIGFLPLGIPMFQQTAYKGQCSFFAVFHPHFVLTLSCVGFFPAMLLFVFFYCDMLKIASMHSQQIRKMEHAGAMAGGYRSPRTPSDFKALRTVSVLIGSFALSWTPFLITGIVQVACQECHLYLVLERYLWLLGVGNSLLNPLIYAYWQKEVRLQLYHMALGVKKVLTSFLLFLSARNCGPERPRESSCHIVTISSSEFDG
Format: cell-based
Procedure: Cyclic AMP Assay in Stable Cell Line:
Chinese Hamster Ovary (CHO-K1) cells were stably transfected with human GPR119 and were maintained in Ham's F-12 complete medium containing 10% heat inactivated FBS (Sigma, UK). The cells were maintained under a selection pressure with 500 μg/ml G418 (GENETICIN). Stable clones were analyzed for functional cAMP response to OEA (oleoylethanolamide).
To estimate activation of GPR119 and induction of cAMP levels by GPR119 agonists, cells were serum starvation for 18-24 h, trypsinized and seeded in 96 well plates at a, density of 7500 cells/well. The cells were then treated with test compounds diluted in serum free Ham's F12 for 1 h at 37° C. The cAMP levels were measured by using the cAMP femto kit (CisBio) by following the manufacturer's instructions. Following treatment with a test compound, the cells were lysed and cAMP levels were estimated by adding D2-labelled cAMP and europium-cryptate conjugated anti-cAMP antibody. Close proximity of D2 and cryptate results in FRET and the subsequent fluorescence that is measured at 665 and 620 nm. The FRET response is calculated as the ratio of fluorescence at 665 to fluorescence at 620 nm. The unlabelled cAMP produced as a result of GPR119 activation/agonism competes with the D2-cAMP leading to a decrease in the FRET signal. Thus the FRET signal is inversely proportional to the amount of cAMP produced by the treated cells. In a separate set of wells, known concentrations of cAMP were added in order to get a standard linear curve for extrapolation of the cAMP values in the unknown/test samples. Fluorescence was measured on BMG Labtech PHERAstar machine.
The concentration of compound required to stimulate a half-maximal response (EC50) was determined using the GraphPad Prism software.
The compounds prepared were tested using the above assay procedure and the results obtained are given below.

Row | SMILES | EC50 [nM]
1 | CCc1cnc(N2CCC(Oc3ccc(-n4ccc5cc(NC(=O)C(C)(C)C)ccc54)nc3)CC2)nc1 [Example-118, N-(1-(5-((1-(5-Ethylpyrimidin-2-yl)piperidin-4-yl)oxy)pyridin-2-yl)-1H-indol-5-yl)pivalamide] | < 50
2 | Cc1noc(N2CCC(Oc3ccc(-n4ccc5cc(S(C)(=O)=O)ccc54)nc3)CC2)n1 [Example-92, 3-Methyl-5-(4-((6-(5-(methylsulfonyl)-1H-indol-1-yl)pyridin-3-yl)oxy)piperidin-1-yl)-1,2,4-oxadiazole] | 50 to 250
3 | CCOC(=O)N1CCC(Oc2ccc(-n3ccc4cc(S(C)(=O)=O)ccc43)nc2)CC1 [Example-185, Ethyl-4-((6-(5-(methylsulfonyl)-1H-indol-1-yl)pyridin-3-yl)oxy)-piperidine-1-carboxylate] | 50 to 250
4 | CCc1cnc(N2CCC(Oc3ccc(-n4ccc5cc(CNC(=O)C(C)C)ccc54)nc3)CC2)nc1 [Example-98, N-((1-(5-((1-(5-Ethylpyrimidin-2-yl)piperidin-4-yl)oxy)pyridin-2-yl)-1H-indol-5-yl)methyl)isobutyramide] | < 50
5 | CC(C)c1noc(N2CCC(Oc3ccc(-n4ccc5cc(S(C)(=O)=O)ccc54)nc3)CC2)n1 [Example-4, 3-Isopropyl-5-(4-((6-(5-(methylsulfonyl)-1H-indol-1-yl)pyridin-3-yl)oxy)piperidin-1-yl)-1,2,4-oxadiazole] | < 50
6 | CCc1cnc(N2CCC(Oc3ccc(-n4ccc5cc(C(=O)NC6CC6)ccc54)nc3)CC2)nc1 [Example-54, N-Cyclopropyl-1-(5-((1-(5-ethylpyrimidin-2-yl)piperidin-4-yl)oxy)pyridin-2-yl)-1H-indole-5-carboxamide] | < 50
7 | CC(C)(F)CN1CCC(Oc2ccc(-n3ccc4cc(S(C)(=O)=O)ccc43)nc2)CC1 [Example-14, 1-(5-((1-(2-Fluoro-2-methylpropyl)piperidin-4-yl)oxy)pyridin-2-yl)-5-(methylsulfonyl)-1H-indole] | < 50
8 | CCc1cnc(N2CCC(COc3ccc(-n4ccc5cc(S(C)(=O)=O)ccc54)nc3)CC2)nc1 [Example-6, 1-(5-((1-(5-Ethylpyrimidin-2-yl)piperidin-4-yl)methoxy)pyridin-2-yl)-5-(methylsulfonyl)-1H-indole] | < 50
9 | CCS(=O)(=O)c1ccc2c(ccn2-c2ccc(OC3CCN(CC(C)(C)O)CC3)cn2)c1 [Example-13, 1-(4-((6-(5-(Ethylsulfonyl)-1H-indol-1-yl)pyridin-3-yl)oxy)piperidin-1-yl)-2-methylpropan-2-ol] | 50 to 250
10 | CC(C)(C)CN1CCC(Oc2ccc(-n3ccc4cc(S(C)(=O)=O)ccc43)nc2)CC1 [Example-35, 5-(Methylsulfonyl)-1-(5-((1-neopentylpiperidin-4-yl)oxy)pyridin-2-yl)-1H-indole] | < 50
11 | CCc1cnc(N2CCC(Oc3ccc(-n4ccc5cc(-n6cncn6)ccc54)nc3)CC2)nc1 [Example-190, 1-(5-((1-(5-Ethylpyrimidin-2-yl)piperidin-4-yl)oxy)pyridin-2-yl)-5-(1H-1,2,4-triazol-1-yl)-1H-indole] | < 50
12 | CCc1cnc(N2CCC(Oc3ccc(-n4ccc5cc(C(=O)N(C)C)ccc54)nc3)CC2)nc1 [Example-40, 1-(5-((1-(5-Ethylpyrimidin-2-yl)piperidin-4-yl)oxy)pyridin-2-yl)-N,N-dimethyl-1H-indole-5-carboxamide] | < 50
13 | CCc1cnc(N2CCC(Oc3ccc(-n4ccc5cc(NC(=O)C(C)C)ccc54)nc3)CC2)nc1 [Example-123, N-(1-(5-((1-(5-Ethylpyrimidin-2-yl)piperidin-4-yl)oxy)pyridin-2-yl)-1H-indol-5-yl)isobutyramide] | < 50
14 | CC(C)C(=O)Nc1ccc2c(ccn2-c2ccc(OC3CCN(C(=O)C(C)C)CC3)cn2)c1 [Example-127, N-(1-(5-((1-Isobutyrylpiperidin-4-yl)oxy)pyridin-2-yl)-1H-indol-5-yl) isobutyramide] | < 50
15 | CCc1cnc(N2CCC(Oc3ccc(-n4ccc5cc(-c6nc(C)no6)ccc54)nc3)CC2)nc1 [Example-103, 5-(1-(5-((1-(5-Ethylpyrimidin-2-yl)piperidin-4-yl)oxy)pyridin-2-yl)-1H-indol-5-yl)-3-methyl-1,2,4-oxadiazole] | 50 to 250
16 | Cc1noc(N2CCC(Oc3ccc(-n4ccc5cc(S(=O)(=O)C(C)C)ccc54)nc3)CC2)n1 [Example-18, 5-(4-((6-(5-(Isopropylsulfonyl)-1H-indol-1-yl)pyridin-3-yl)oxy)piperidin-1-yl)-3-methyl-1,2,4-oxadiazole] | 50 to 250
17 | CC(C)OC(=O)N1CCC(Oc2ccc(-n3ccc4cc(N5CCOC5=O)ccc43)nc2)CC1 [Example-166, Isopropyl 4-((6-(5-(2-oxooxazolidin-3-yl)-1H-indol-1-yl)pyridin-3-yl)oxy)piperidine-1-carboxylate] | 250 to 1000
18 | CCc1cnc(N2CC3COCC(C2)C3Oc2ccc(-n3ccc4cc(S(C)(=O)=O)ccc43)nc2)nc1 (stereo not drawn) [Example-51, anti 7-(5-Ethylpyrimidin-2-yl)-9-((6-(5-(methylsulfonyl)-1H-indol-1-yl)pyridin-3-yl)oxy)-3-oxa-7-azabicyclo[3.3.1]nonane] | < 50
19 | CC(C)(C)OC(=O)N1CCC(Oc2ccc(-n3ccc4cc(S(C)(=O)=O)cc(F)c43)nc2)CC1 [Example-91, tert-Butyl-4-((6-(7-fluoro-5-(methylsulfonyl)-1H-indol-1-yl)pyridin-3-yl)oxy)piperidine-1-carboxylate] | < 50
20 | CCc1cnc(N2CCC(Oc3ccc(-n4ccc5cc(C#N)ccc54)nc3)CC2)nc1 [Example-58, 1-(5-((1-(5-Ethylpyrimidin-2-yl)piperidin-4-yl)oxy)pyridin-2-yl)-1H-indole-5-carbonitrile] | 250 to 1000
21 | CC(C)(C)OC(=O)N1CC2COCC(C1)C2Oc1ccc(-n2ccc3cc(S(C)(=O)=O)ccc32)nc1 (stereo not drawn) [Example-48, (syn)-tert-Butyl-9-((6-(5-(methylsulfonyl)-1H-indol-1-yl)pyridin-3-yl)oxy)-3-oxa-7-azabicyclo[3.3.1]nonane-7-carboxylate] | 50 to 250
22 | CCc1cnc(N2CCC(Oc3ccc(-n4ccc5cc(S(C)(=O)=O)cc(F)c54)nc3)CC2)nc1 [Example-171, 1-(5-((1-(5-Ethylpyrimidin-2-yl)piperidin-4-yl)oxy)pyridin-2-yl)-7-fluoro-5-(methylsulfonyl)-1H-indole] | < 50
23 | CCc1cnc(N2CCC(Oc3ccc(-n4ccc5cc(OC)cnc54)nc3)CC2)nc1 [Example-157, 1-(5-((1-(5-Ethylpyrimidin-2-yl)piperidin-4-yl)oxy)pyridin-2-yl)-5-methoxy-1H-pyrrolo[2,3-b]pyridine] | 50 to 250
24 | CC(C)(C)OC(=O)N1CCC(COc2ccc(-n3ccc4cc(S(C)(=O)=O)ccc43)nc2)CC1 [Example-5, tert-Butyl-4-(((6-(5-(methylsulfonyl)-1H-indol-1-yl)pyridin-3-yl)oxy)methyl)piperidine-1-carboxylate] | < 50
25 | CCc1cnc(N2CCC(Oc3ccc(-n4ccc5cc(C(=O)NCCO)ccc54)nc3)CC2)nc1 [Example-77, 1-(5-((1-(5-Ethylpyrimidin-2-yl)piperidin-4-yl)oxy)pyridin-2-yl)-N-(2-hydroxyethyl)-1H-indole-5-carboxamide] | < 50
26 | CCc1cnc(N2CCC(Oc3ccc(-n4ccc5cc(C(=O)NCC(F)(F)F)ccc54)nc3)CC2)nc1 [Example-88, 1-(5-((1-(5-Ethylpyrimidin-2-yl)piperidin-4-yl)oxy)pyridin-2-yl)-N-(2,2,2-trifluoroethyl)-1H-indole-5-carboxamide] | 250 to 1000
27 | CCc1cnc(N2CCC(Oc3ccc(-n4ccc5cc(NC(=O)OC(C)C)ccc54)nc3)CC2)nc1 [Example-132, Isopropyl(1-(5-((1-(5-ethylpyrimidin-2-yl)piperidin-4-yl)oxy)pyridin-2-yl)-1H-indol-5-yl)carbamate] | < 50
28 | CS(=O)(=O)c1ccc2c(ccn2-c2ccc(OC3CCN(CC4(C(F)(F)F)CC4)CC3)cn2)c1 [Example-193, 5-(Methylsulfonyl)-1-(5-((1-((1-(trifluoromethyl)cyclopropyl)methyl)-piperidin-4-yl)oxy)pyridin-2-yl)-1H-indole] | < 50
29 | CC(C)C(=O)Nc1ccc2c(ccn2-c2ccc(OC3CCN(c4nc(C(C)C)no4)CC3)cn2)c1 [Example-57, N-(1-(5-((1-(3-Isopropyl-1,2,4-oxadiazol-5-yl)piperidin-4-yl)oxy)pyridin-2-yl)-1H-indol-5-yl)isobutyramide] | < 50
